# Source: PubChem BioAssay (NCI)
#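 Briefly, cells in 96-well plates were exposed to five compound concentrations for 48 h, and endpoints were estimated by linear interpolation. GI50 marks 50% less growth. Definition used: TGI = concentration required for complete inhibition of growth.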
# Columns and labels:
# Assay in all cases: inhibition of tumour cell growth, NCI panel, 48 h
# [1] = test system: MALME-3M melanoma
# [2] = test system: UACC-62 melanoma
# [3] = test system: K-562 leukemia
# [4] = test system: SK-MEL-28 melanoma
# [5] = test system: SK-OV-3 ovarian
# [6] = test system: SF-539 CNS
# [7] = test system: KM12 colon
# [8] = test system: CAKI-1 renal
# [9] = test system: SNB-19 CNS
# [10] = test system: PC-3 prostate
structure (smiles),measurement,setting,value
COc1ccc(/C(Cl)=C(\C=O)c2ccc([N+](=O)[O-])cc2)cc1,TGI,[1],68.1 µM
same,TGI,[2],33.1 µM
same,TGI,[3],> 37.5 µM
same,TGI,[4],> 93.8 µM
same,TGI,[5],76.7 µM
same,TGI,[6],32.2 µM
same,TGI,[7],11.4 µM
same,TGI,[8],33.8 µM
same,TGI,[9],> 31.6 µM
COc1ccc2nc3cc(Cl)ccc3c(NCCN)c2c1,GI50,[10],1.72 µM
same,TGI,[10],3.38 µM
same,GI50,[5],1.81 µM
same,TGI,[5],3.26 µM
same,GI50,[7],1.67 µM
same,TGI,[7],3.46 µM
same,GI50,[8],1.65 µM
same,TGI,[8],3.06 µM
CN(C)C(c1ccccc1)C(O)c1ccccc1 (stereo not given),TGI,[1],> 100 µM
same,TGI,[2],> 100 µM
same,TGI,[3],> 100 µM
same,TGI,[4],> 100 µM
same,TGI,[5],> 100 µM
same,TGI,[6],> 100 µM
same,TGI,[7],> 100 µM
same,TGI,[8],> 100 µM
same,TGI,[9],> 100 µM
c1cc2c(ncc3cscc32)s1,TGI,[1],> 100 µM
same,TGI,[2],> 31.6 µM
same,TGI,[10],> 100 µM
same,TGI,[3],> 100 µM
same,TGI,[4],> 100 µM
same,TGI,[6],> 100 µM
same,TGI,[7],> 100 µM
same,TGI,[8],> 100 µM
same,TGI,[9],> 100 µM
COC1=CC2(C=CC1=O)c1cc(OC)c(OC)cc1CCN2C(=O)c1ccccc1 (stereo not given),TGI,[1],> 100 µM
same,TGI,[2],> 100 µM
same,TGI,[3],> 100 µM
same,TGI,[4],> 100 µM
same,TGI,[5],> 100 µM
same,TGI,[6],> 100 µM
same,TGI,[7],> 100 µM
same,TGI,[8],> 100 µM
same,TGI,[9],> 100 µM
Cc1ccc(-c2cc(=O)c3cc(C)c(C)c(C(=O)O)c3o2)cc1C,TGI,[1],> 100 µM
same,TGI,[2],> 100 µM
same,TGI,[3],> 100 µM
same,TGI,[4],> 100 µM
same,TGI,[5],> 100 µM
same,TGI,[6],> 100 µM
same,TGI,[7],> 100 µM
same,TGI,[8],89.5 µM
same,TGI,[9],> 100 µM
O=C(/C=C/c1c(O)ccc2ccccc12)c1ccccc1,TGI,[1],> 100 µM
same,TGI,[2],> 100 µM
same,TGI,[3],> 100 µM
same,TGI,[4],> 100 µM
same,TGI,[5],> 100 µM
same,TGI,[6],> 100 µM
same,TGI,[7],> 100 µM
same,TGI,[8],> 100 µM
same,TGI,[9],> 100 µM
Fc1ccc(C2SCc3nc4ccccc4n32)cc1Cl (stereo not given),TGI,[1],31 µM
same,TGI,[2],25.6 µM
same,TGI,[3],55.9 µM
same,TGI,[4],61.2 µM
same,TGI,[5],49.5 µM
same,TGI,[6],43.8 µM
same,TGI,[7],39.8 µM
same,TGI,[8],38.4 µM
same,TGI,[9],> 100 µM
Cc1[nH]c2ccccc2c1C1Cc2ccccc2N1C(=O)/C(Cl)=C/c1ccccc1 (stereo not given),TGI,[1],> 100 µM
same,TGI,[2],> 100 µM
same,TGI,[3],> 100 µM
same,TGI,[4],> 100 µM
same,TGI,[5],> 100 µM
same,TGI,[6],> 100 µM
same,TGI,[7],> 100 µM
same,TGI,[8],> 100 µM
same,TGI,[9],> 100 µM
CC(C)c1ccc(C(c2ccc(OCC(=O)O)cc2)c2ccc(C(C)C)cc(=O)c2O)c(O)c(=O)c1,TGI,[2],20.7 µM
same,TGI,[3],35.5 µM
same,TGI,[4],24.5 µM
same,TGI,[5],41.9 µM
same,TGI,[6],31.3 µM
same,TGI,[8],18.1 µM
same,TGI,[9],28 µM
CCc1ccc(Nc2ccc([N+](=O)[O-])cc2[N+](=O)[O-])cc1,TGI,[1],> 100 µM
same,TGI,[2],> 100 µM
same,TGI,[3],> 100 µM
same,TGI,[4],> 100 µM
same,TGI,[5],> 100 µM
same,TGI,[6],> 100 µM
same,TGI,[7],> 100 µM
same,TGI,[8],> 100 µM
N#CCc1ccc(C(C#N)/C(CCCC(=O)Nc2cccc([N+](=O)[O-])c2)=N/NC(N)=S)cc1 (stereo not given),TGI,[1],> 100 µM
same,TGI,[2],> 100 µM
same,TGI,[3],> 100 µM
same,TGI,[4],> 100 µM
same,TGI,[5],> 100 µM
same,TGI,[6],> 100 µM
same,TGI,[7],> 100 µM
same,TGI,[8],> 100 µM
same,TGI,[9],> 100 µM
CCCCCCC(=O)C/C(=N/NC(N)=S)C(=O)NC1C2CC3CC(C2)CC1C3 (stereo not given),TGI,[1],> 100 µM
same,TGI,[2],> 100 µM
same,TGI,[4],> 100 µM
same,TGI,[7],> 100 µM
same,TGI,[9],> 100 µM
COc1cccc(N2C(=O)[C@H]3CC(C)c4c([nH]c5ccccc45)[C@H]3C2=O)c1 (stereo not given in full),TGI,[1],> 100 µM
same,TGI,[2],> 100 µM
same,TGI,[3],> 100 µM
same,TGI,[4],> 100 µM
same,TGI,[5],72.2 µM
same,TGI,[6],93.1 µM
same,TGI,[7],> 100 µM
same,TGI,[8],> 100 µM
same,TGI,[9],> 100 µM
COC(C(O)c1ccc2c(c1)OCO2)P(=O)(c1ccccc1)c1ccccc1 (stereo not given),TGI,[1],> 100 µM
same,TGI,[2],> 100 µM
same,TGI,[3],> 100 µM
same,TGI,[4],> 100 µM
same,TGI,[6],> 100 µM
same,TGI,[7],> 100 µM
same,TGI,[8],> 100 µM
same,TGI,[9],> 100 µM
CC1=N/C(=C\c2cccc([N+](=O)[O-])c2)C(=O)O1,TGI,[1],> 100 µM
same,TGI,[2],> 100 µM
same,TGI,[3],> 100 µM
same,TGI,[4],> 100 µM
same,TGI,[6],> 100 µM
same,TGI,[7],> 100 µM
same,TGI,[9],> 100 µM
C=C1CC[C@@H]2[C@](C)(COC(C)=O)[C@H](OC(C)=O)CC[C@@]2(C)[C@@H]1CC(Nc1ccc(S(=O)(=O)Nc2ncccn2)cc1)C1=CCOC1=O (stereo not given in full),GI50,[2],1.11 µM
same,TGI,[2],2.56 µM
same,GI50,[10],2.11 µM
same,TGI,[10],5.07 µM
same,GI50,[3],1.73 µM
same,TGI,[3],11.7 µM
same,GI50,[4],1.69 µM
same,TGI,[4],3.24 µM
same,GI50,[5],6.27 µM
same,TGI,[5],18.3 µM
same,GI50,[6],1.5 µM
same,TGI,[6],2.94 µM
same,GI50,[7],2.33 µM
same,TGI,[7],5.54 µM
same,GI50,[8],1.74 µM
same,TGI,[8],4.04 µM
same,GI50,[9],1.63 µM
same,TGI,[9],3.76 µM
CCOc1ccc2c(c1)[n+]([O-])c(-c1nc3ccccc3s1)c(N)[n+]2[O-],TGI,[1],> 100 µM
same,TGI,[2],> 100 µM
same,TGI,[3],> 100 µM
same,TGI,[4],> 100 µM
same,TGI,[5],> 100 µM
same,TGI,[6],> 100 µM
same,TGI,[7],> 100 µM
same,TGI,[8],> 100 µM
same,TGI,[9],> 100 µM
Cn1c2ccccc2c2c3[nH]c(=O)[nH]c(=O)c3c3c4ccccc4n(C)c3c21,GI50,[1],2.03 µM
same,TGI,[1],6.14 µM
same,GI50,[2],6.64 µM
same,TGI,[2],> 100 µM
same,GI50,[10],30.1 µM
same,TGI,[10],> 100 µM
same,GI50,[4],4.5 µM
same,TGI,[4],> 100 µM
same,GI50,[5],1.75 µM
same,TGI,[5],5.79 µM
same,GI50,[6],1.78 µM
same,TGI,[6],6.61 µM
same,GI50,[7],2.51 µM
same,TGI,[7],> 100 µM
same,GI50,[9],3.8 µM
same,TGI,[9],21.4 µM
COc1cc2c(c(OC)c1)C1(CC(CC#N)C2)SCCS1 (stereo not given),TGI,[1],> 100 µM
same,TGI,[2],> 100 µM
same,TGI,[3],> 100 µM
same,TGI,[4],> 100 µM
same,TGI,[5],> 100 µM
same,TGI,[6],> 100 µM
same,TGI,[7],> 100 µM
same,TGI,[8],> 100 µM
same,TGI,[9],> 100 µM
COc1ccc2c3c(coc13)C(CCC(=O)O)CC2 (stereo not given),TGI,[2],> 100 µM
same,TGI,[4],> 100 µM
same,TGI,[5],> 100 µM
same,TGI,[6],> 100 µM
same,TGI,[8],> 100 µM
same,TGI,[9],> 100 µM
COc1ccc(CNc2nc3cc(C(F)(F)F)ccc3nc2C)cc1OC,TGI,[1],44.1 µM
same,TGI,[2],> 100 µM
same,TGI,[3],> 100 µM
same,TGI,[4],> 100 µM
same,TGI,[5],> 100 µM
same,TGI,[6],> 100 µM
same,TGI,[7],83 µM
same,TGI,[8],> 100 µM
same,TGI,[9],> 100 µM
